Molecular target: D(2) dopamine receptor (Rattus norvegicus) (UniProt P61169)
Sequence (P61169 whole entry, looked up): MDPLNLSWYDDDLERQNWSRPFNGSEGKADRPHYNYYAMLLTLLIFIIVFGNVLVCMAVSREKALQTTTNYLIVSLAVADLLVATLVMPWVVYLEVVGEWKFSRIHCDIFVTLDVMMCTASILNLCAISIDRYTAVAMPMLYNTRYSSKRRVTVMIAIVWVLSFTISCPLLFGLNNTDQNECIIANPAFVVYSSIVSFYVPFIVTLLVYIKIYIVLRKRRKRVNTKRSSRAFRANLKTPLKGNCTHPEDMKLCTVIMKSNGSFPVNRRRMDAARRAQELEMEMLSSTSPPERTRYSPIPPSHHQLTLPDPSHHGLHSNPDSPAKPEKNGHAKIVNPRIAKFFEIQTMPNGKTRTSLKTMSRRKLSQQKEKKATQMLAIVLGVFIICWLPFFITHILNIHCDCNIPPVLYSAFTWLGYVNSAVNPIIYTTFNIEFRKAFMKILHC

CN1C[C@H](C(N)=O)C=C2c3cccc4[nH]c(Br)c(c34)C[C@H]21
Ki: 2 nM

Reference: ChEMBL document CHEMBL1131163 (J Med Chem, 1998)
